Reference: the NIST ThermoML archive (doi:10.1016/j.jct.2005.10.007)

Assay: mn = molality of the nth substance listed, in mol/kg
Settings: 350 kPa, Liquid, Extra sensitive DSC

C[C@H](N)C(=O)O [(S)-2-aminopropanoic acid] + O
apparent molar heat capacity [J/K/mol]
Settings	m1 = 0.0152	m1 = 0.0299	m1 = 0.05	m1 = 0.08	m1 = 0.1247	m1 = 0.2493	m1 = 0.5149	m1 = 1.002
278.15 K	107	137	101.3	106	107	113.3	122.6	118.5
283.15 K	119	148	113.2	117.9	118.8	124.8	133.2	128.7
288.15 K	131	156	123.3	127.8	128.9	134.4	142	137.2
293.15 K	143	163	131.5	136	137.4	142.4	149.5	144.3
298.15 K	152	170	138.2	142.8	144.2	149.1	155.6	150.2
303.15 K	158	174	143.9	148.7	150.3	154.9	160.8	155.5
308.15 K	163	178	148.9	153.7	155.4	159.8	165.3	159.8
313.15 K	169	182	153.6	158	159.9	164.1	169.3	163.8
318.15 K	172	185	157.3	161.6	163.9	167.7	172.6	167.1
323.15 K	175	188	160.9	164.9	167.3	170.9	175.5	170
328.15 K	178	190	163.7	167.7	170.3	173.6	178	172.5
333.15 K	181	192	166.4	170.2	173	176.1	180.3	174.8
338.15 K	184	194	168.8	172.4	175.4	178.3	182.3	176.9
343.15 K	187	196	170.7	174.2	177.3	180.1	183.9	178.6
348.15 K	188	197	172.4	175.9	178.9	181.7	185.3	180.1
353.15 K	190	198	174	177.4	180.5	183.1	186.6	181.4
358.15 K	191	199	175.2	178.5	181.6	184.3	187.6	182.5
363.15 K	192	199	176.1	179.4	182.5	185.1	188.4	183.5
368.15 K	192	200	176.6	180.1	183.3	185.8	189	184.2
373.15 K	192	200	177.1	180.5	183.7	186.2	189.4	184.8
378.15 K	192	200	177.2	180.6	183.8	186.4	189.5	185.1
383.15 K	192	200	177.1	180.7	183.9	186.4	189.6	185.4
388.15 K	192	199	176.8	180.3	183.6	186.2	189.4	185.5
393.15 K	190	200	176.6	179.8	183.1	185.8	189.2	185.5
